Test [1] concerns LMD9-Δblp::PcomX-luxABΔshp316::P32-cat. As to the kind of experiment: Natural transformation in CDM of the shp316-deleted strain upon addition of synthetic peptides (test A). Format: cell-based, Streptococcus thermophilus. To be noted: 1 μM synthetic peptide; for Transformation rate, With peptide addition: 1 μg/mL pGIUD0855ery, CDM, erythromycin selection; for Restoration of the competence defect: result in words. The protocol:
A mutant strain of LMD-9 in which the shp316 gene (which is the gene encoding the peptide Shp316) has been inactivated, such as strain LMD9-Δblp::PcomX-luxABΔshp316::P32-cat (see Example 2 for details on this strain) is pre-cultivated in M17-lactose medium. The cells of the preculture are harvested (5000 g, 9 minutes, 20° C.) and washed twice in Chemically Defined Medium (CDM, see Annex I) and then resuspended in CDM. The washed cells are diluted in fresh CDM medium to obtain an optical density of 0.05 at 600 nm, and then incubated at 37° C. After 1.5 h of incubation, the culture is separated in 2 aliquots of 10 mL and 0 or 1000 nM of peptide are added in the culture samples. Finally, each 10 mL-aliquot is divided in 2 samples of 5 mL each. One of the 2 samples receives 1 μg/mL pGIUD0855ery, a plasmid bearing an erythromycin resistance gene. The competence phenotype of the samples is studied by performing natural transformation experiments as described in example 1. The cultures are grown for 6 hours and serial dilutions are plated on the surface of M17-lactose agar medium containing or not 2.5 μg/mL of erythromycin. The transformation rate in the presence or absence of peptide is calculated for each sample; it is expressed as the ratio of erythromycin-resistant cells among the total bacterial population.
The experimental strategy is described below. Strain LMD9-Δblp::PcomX-luxABΔshp316::P32-cat is precultivated in M17-lactose medium. The cells of the preculture were harvested (5000 g, 9 minutes, 20° C.) and washed twice in CDM and then resuspended in CDM. The washed cells are diluted in fresh CDM to obtain an optical density of 0.05 at 600 nm, and then incubated at 37° C. After 1.5 h of incubation, in one set of experiment, 1 μM of one of the tested synthetic peptides and 1 μg/mL of pGIUD0855ery were added to the culture; whereas 1 μg/mL of pGIUD0855ery but no synthetic peptide was added to the second set of experiment. The cultures were grown during 6 hours and serial dilutions were plated on the surface of M17-lactose agar medium containing 2.5 μg/mL of erythromycin to measure transformation efficiency.
Ability of peptides derived from Shp316 to restore the competence defect of LMD9-Δblp::PcomX-luxABΔshp316::P32-cat was further investigated focusing on the synthetic peptide PYFAGCL. Experimental work was performed as described above except that various concentrations of PYFAGCL were used: 0 nM, 1 nM, 10 nM, 100 nM, 500 nM, 1 μM, 2.5 μM and 5 μM. […]

The test system of test [2] is S. thermophilus CNRZ1066. The test is described as follows: Natural transformation in CDM upon addition of synthetic peptide. Format: cell-based, Streptococcus thermophilus. As to the method: (§1) Similarly to the protocol used in example 4, strains LMD-9, LMG18311, CNRZ1066 and JIM8777 were pre-cultivated in M17-lactose medium. The cells of the precultures were harvested (5000 g, 9 minutes, 20° C.) and washed twice in CDM and then resuspended in CDM. The washed cells were diluted in fresh CDM medium to obtain an optical density of 0.05, and then incubated at 37° C. After 1.5 h of incubation, in one set of experiment, 1 μM of one of the tested synthetic peptides and 1 μg/mL of pGIUD0855ery DNA (in case of S. thermophilus strains), or 1 μg/ml of pG+host09 DNA (in case of S. salivarius strains) were added to the culture, whereas 1 μg/mL of DNA but no synthetic peptide was added to the second set of experiment. The cultures were grown during 6 hours and serial dilutions were plated on the surface of M17-lactose agar medium containing 2.5 μg/mL of erythromycin to measure transformation efficiency. Transformed S. thermophilus and S. salivarius cells are selected at 37° C. and 29° C., respectively.
Similarly to the protocol used in example 4, various S. thermophilus strains, including LMD-9, CNRZ1066 and LMG18311 used as controls, were pre-cultivated in M17-lactose medium. The cells of the precultures were harvested (5000 g, 9 minutes, 20° C.) and washed twice in CDM and then resuspended in CDM. The washed cells were diluted in fresh CDM medium to obtain an optical density of 0.05, and then incubated at 37° C. After 1.5 h of incubation, in one set of experiment, 1 μM of one of the tested synthetic peptides (LPYFAGCL) (SEQ ID NO: 85) and 1 μg/mL of pGIUD0855cat DNA were added to the culture, whereas 1 μg/mL of DNA but no synthetic peptide was added to the second set of experiment. Plasmid pGIUD0855cat is a pUC18-derivative containing a chloramphenicol resistance cassette flanked by 1-kb fragments corresponding to the upstream and downstream regions of stu0855. Upon transformation, it promotes the genetic replacement of stu0855 by P32-cat through homologous recombination (FIG. 7). The cultures were grown during 6 hours and serial dilutions were plated on the surface of M17-lactose agar medium containing 5 μg/mL of chloramphenicol to measure transformation efficiency. Transformed S. thermophilus cells were selected at 37° C.; when transformants were obtained, the transformation efficiency was calculated and is given in Table 9.
Day 2: • Centrifuge Day 1—culture (centrifugation parameters: 5000 g, 9 minutes, 15° C.) and perform two washing steps with one volume (10 mL) of CDM (centrifugation parameters: 5000 g, 9 minutes, 15° C.). • Dilute the culture in 10 mL CDM to obtain an OD600nm of 0.05. • A small volume of S. thermophilus cultures (300 μL) is then transferred in white microplate with a transparent bottom (655095; Greiner, Alphen aid Rijn, The Netherlands) and is grown at 37° C. Luminescence at 595 nm and optical density at 600 nm are recorded with the automatic Synergy HT multi-mode microplate reader. The luciferase activity catalysed by LuxAB requires the presence of nonanal as substrate. In this experimental set-up, nonanal (Acros Organics ref. 204-688-5) is supplied to the cultures by placing 50 μL of a solution containing 1% nonanal diluted in mineral oil in the spaces between the wells of a covered microplate (11). […] The luminescence and absorbance are scanned every 10 minutes during 6 hours. • To perform a competence experiment, 1 μg of donor DNA is added in the 300 μL samples in the beginning of incubation. […]

The subject of test [3] is S. salivarius JIM8777. The description is as above. Format: cell-based, Streptococcus salivarius. The protocol: as §1
Day 2: • Centrifuge Day 1—culture (centrifugation parameters: 5000 g, 9 minutes, 15° C.) and perform two washing steps with one volume (10 mL) of CDM (centrifugation parameters: 5000 g, 9 minutes, 15° C.). • Dilute the culture in 10 mL CDM to obtain an OD600nm of 0.05. • A small volume of S. thermophilus cultures (300 μL) is then transferred in white microplate with a transparent bottom (655095; Greiner, Alphen aid Rijn, The Netherlands) and is grown at 37° C. Luminescence at 595 nm and optical density at 600 nm are recorded with the automatic Synergy HT multi-mode microplate reader. The luciferase activity catalysed by LuxAB requires the presence of nonanal as substrate. In this experimental set-up, nonanal (Acros Organics ref. 204-688-5) is supplied to the cultures by placing 50 μL of a solution containing 1% nonanal diluted in mineral oil in the spaces between the wells of a covered microplate (11). The nonanal present in the solution will become volatile and there will be an equilibrium between the concentration of nonanal present in the air and in the culture samples. The luminescence and absorbance are scanned every 10 minutes during 6 hours. • To perform a competence experiment, 1 μg of donor DNA is added in the 300 μL samples in the beginning of incubation. […] In case of the sample that received DNA, make different 10-fold dilutions of the sample and plate 100 μL on the same solid selective medium. Check the viability of the cells in the samples by plating 10 μL of serial 10-fold dilutions of the cultures on M17, lactose 1% medium. Transformants are picked following 24 h of incubation at 37° C. in anaerobic conditions (gaspak BBL). […]

Where [4] appears, read: 1 μM PYFTGCL, 1 μg/mL pG+host09.

On to “PYFAGC (fragment) [synthetic peptide, fragment of Shp316 without the carboxy-terminal leucine]”, for which the “Transformation rate, With peptide addition” value (from here on “Transformation rate”) in test [1] is listed as <10^−8. As for “AILPYFAGCL (fragment) [synthetic peptide corresponding to a C-terminal fragment of Shp316]”, in test [1], the “Transformation rate” value is reported as 2.21 × 10^−3 and the “Restoration of the competence defect” value is “allowed to restore the competence defect”.

As for “ILPYFAG (fragment) [synthetic peptide corresponding to a fragment of Shp316 without the C-terminal CL]”, in test [1], the “Transformation rate” value is <10^−8.

As for “AILPYFAGC (fragment) [synthetic peptide, fragment of Shp316 without the carboxy-terminal leucine]”, in test [1], the “Transformation rate” value is on record as <10^−8. The same measure, in the same setting: the figure for “ILPYFAGC (fragment) [synthetic peptide, fragment of Shp316 without the carboxy-terminal leucine]” is <10^−8. Consider “PYFTGCL (fragment) [alanine in position 4 replaced by threonine]”, for which the entries for the “Transformation rate” value in test [2] (setting [4]) and in test [3] (setting [4]) were 3.48 × 10^−7 and 5.77 × 10^−7, respectively. For the same substance, the “Complementation of the transformation defect in CDM” value in test [2] (1 μM peptide, result in words) is given as “able to complement the transformation defect”; in test [3] (1 μM peptide, result in words) it was “able to complement the transformation defect”. In the case of “ILPYFAGCL (fragment) [synthetic peptide corresponding to a C-terminal fragment of Shp316]”, in test [1], the “Transformation rate” value is 3.42 × 10^−3 and the “Restoration of the competence defect” value is “allowed to restore the competence defect”. For the substance “PYFAG (fragment) [synthetic peptide corresponding to a fragment of Shp316 without the C-terminal CL]”, the “Transformation rate” value in test [1] is <10^−8. Consider “LPYFAGC (fragment) [synthetic peptide, fragment of Shp316 without the carboxy-terminal leucine]”, for which the “Transformation rate” value in test [1] was <10^−8.

Values taken from US9243254B2, “Method for transforming a bacterium belonging to the streptococcus genus by natural competence” (priority 2009, dated 2016).
